# Assay results taken from PMC6576746, “Rational discovery of dual-indication multi-target PDE/Kinase inhibitor for precision anti-cancer therapy using structural systems pharmacology” (PLoS Computational Biology, 2019).
# Assays:
# Test in all cases: biochemical
# Design in all cases: DiscoverX KinomeScan competition binding assay across human kinases; per cent of control at 10 and 100 uM
# ANKK1 = ANKK1 (Homo sapiens, UniProt Q8NFD2); conditions: competition binding, % of control; read-out: Percent Control (100 uM Levosimendan)
# Protocol: (§1) To validate our computational predictions, we employed a competition binding assay to detect the binding of levosimendan to 425 human kinases as well as its dose-response curve to RIOK1. The proprietary KinomeScan assay was performed by DiscoverX (Fremont, California, USA). The tests were performed at 10 μM and 100 μM concentrations of levosimendan, respectively. Assay results were reported as %control, calculated as follows: %control=(TestCompoundSignal−PositiveControlSignal)/(NegativeControlSignal−PositiveControlSignal)×100 KinomeScan assay across 452 human kinases verified our computational prediction (S1 Table). RIOK1 is one of the strongest inhibited kinases by levosimendan. The percentage control of RIOK1 is 15.0 and 0.0 under the treatment of 10 μM and 100 μM of levosimendan, respectively. […] The percentage controls of five kinases: FLT3, MAP2K5, PIP5K1A, GAK, and KIT are less than 30.0 under the treatment of both 10 μM and 100 μM of levosimendan. Both FLT3 and KIT are tyrosine protein kinases. Their inhibitors have recently been approved for the treatment of Acute Myeloid Leukemia and other types of cancers, but a combination therapy is needed to overcome rapidly emerged drug resistance, thus improve patients’ drug responses. Other kinases inhibited by levosimendan belong to serine/threonine protein kinase family (RIOK1, RIOK3, GAK, and MAP2K5) and lipid kinase family (PIP5K1A). […] As a result, levosimendan may modulate different cancer pathways from those by the tyrosine protein kinase inhibitors, and it could be a novel lead compound for a new anti-cancer therapy to overcome drug resistance of existing drugs or to target different types of cancers through polypharmacology or drug combination.
# AURKA = AURKA (Homo sapiens, UniProt O14965); conditions: competition binding, % of control; read-out: Percent Control (100 uM Levosimendan)
# Protocol: as §1
# CAMK1G = CAMK1G (Homo sapiens, UniProt Q96NX5); conditions: competition binding, % of control; read-out: Percent Control (100 uM Levosimendan)
# Protocol: as §1
# CAMK4 = CAMK4 (Homo sapiens, UniProt Q16566); conditions: competition binding, % of control; read-out: Percent Control (100 uM Levosimendan)
# Sequence of CAMK4 (Q16566 whole entry): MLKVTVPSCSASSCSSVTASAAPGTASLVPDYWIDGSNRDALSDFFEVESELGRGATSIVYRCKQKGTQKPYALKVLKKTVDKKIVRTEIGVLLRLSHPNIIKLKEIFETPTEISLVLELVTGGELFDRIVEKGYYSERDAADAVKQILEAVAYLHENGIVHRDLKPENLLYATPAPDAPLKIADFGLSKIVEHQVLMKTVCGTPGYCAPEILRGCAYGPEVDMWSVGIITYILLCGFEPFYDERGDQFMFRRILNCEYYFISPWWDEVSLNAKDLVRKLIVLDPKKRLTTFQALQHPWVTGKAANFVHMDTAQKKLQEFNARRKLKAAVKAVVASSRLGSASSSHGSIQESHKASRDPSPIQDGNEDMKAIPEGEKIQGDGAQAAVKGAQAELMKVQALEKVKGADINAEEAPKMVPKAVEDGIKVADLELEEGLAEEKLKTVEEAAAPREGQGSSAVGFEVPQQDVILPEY
# Protocol: as §1
# CDK2 = CDK2 (Homo sapiens, UniProt P24941); conditions: competition binding, % of control; read-out: Percent Control (100 uM Levosimendan)
# Protocol: as §1
# CDK7 = CDK7 (Homo sapiens, UniProt P50613); conditions: competition binding, % of control; read-out: Percent Control (100 uM Levosimendan)
# Protocol: as §1
# DYRK1B = DYRK1B (Homo sapiens, UniProt Q9Y463); conditions: competition binding, % of control; read-out: Percent Control (100 uM Levosimendan)
# Protocol: as §1
# EGFR(G719C) = EGFR(G719C) (Homo sapiens, UniProt P00533, G719C); conditions: competition binding, % of control
# Sequence of EGFR(G719C) (P00533 whole entry G719C): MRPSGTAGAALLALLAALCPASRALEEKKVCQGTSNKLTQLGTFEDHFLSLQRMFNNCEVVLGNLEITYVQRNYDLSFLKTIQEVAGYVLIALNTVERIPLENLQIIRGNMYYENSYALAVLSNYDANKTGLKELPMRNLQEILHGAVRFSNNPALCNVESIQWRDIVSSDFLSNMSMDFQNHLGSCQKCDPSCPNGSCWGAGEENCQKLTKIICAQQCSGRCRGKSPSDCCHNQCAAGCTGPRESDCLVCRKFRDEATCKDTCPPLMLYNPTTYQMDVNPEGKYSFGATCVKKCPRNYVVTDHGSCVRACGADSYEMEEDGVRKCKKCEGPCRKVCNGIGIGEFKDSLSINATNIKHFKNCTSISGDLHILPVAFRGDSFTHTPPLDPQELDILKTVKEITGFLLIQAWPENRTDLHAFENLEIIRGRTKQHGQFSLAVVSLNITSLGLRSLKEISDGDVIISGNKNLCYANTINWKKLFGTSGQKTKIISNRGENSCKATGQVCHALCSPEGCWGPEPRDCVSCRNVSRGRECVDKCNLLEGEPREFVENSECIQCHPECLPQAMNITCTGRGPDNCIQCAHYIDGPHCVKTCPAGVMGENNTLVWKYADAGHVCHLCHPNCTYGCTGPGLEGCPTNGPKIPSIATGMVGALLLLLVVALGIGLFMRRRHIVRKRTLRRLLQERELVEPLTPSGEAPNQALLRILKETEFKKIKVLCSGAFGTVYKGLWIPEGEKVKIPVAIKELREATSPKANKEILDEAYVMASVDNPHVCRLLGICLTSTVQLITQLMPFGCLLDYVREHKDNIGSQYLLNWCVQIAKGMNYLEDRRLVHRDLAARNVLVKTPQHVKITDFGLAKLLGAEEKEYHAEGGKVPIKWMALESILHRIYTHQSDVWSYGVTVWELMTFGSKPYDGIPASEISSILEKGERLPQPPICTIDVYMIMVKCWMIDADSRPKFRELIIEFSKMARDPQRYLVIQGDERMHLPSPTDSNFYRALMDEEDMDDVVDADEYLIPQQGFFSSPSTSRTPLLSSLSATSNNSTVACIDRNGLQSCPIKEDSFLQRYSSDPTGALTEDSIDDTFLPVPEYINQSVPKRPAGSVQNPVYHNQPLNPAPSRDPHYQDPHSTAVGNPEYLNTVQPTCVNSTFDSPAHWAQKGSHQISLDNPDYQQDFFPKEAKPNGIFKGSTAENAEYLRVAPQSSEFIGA
# Protocol: as §1
# IRAK1 = IRAK1 (Homo sapiens, UniProt P51617); conditions: competition binding, % of control; read-out: Percent Control (100 uM Levosimendan)
# Sequence of IRAK1 (P51617 whole entry): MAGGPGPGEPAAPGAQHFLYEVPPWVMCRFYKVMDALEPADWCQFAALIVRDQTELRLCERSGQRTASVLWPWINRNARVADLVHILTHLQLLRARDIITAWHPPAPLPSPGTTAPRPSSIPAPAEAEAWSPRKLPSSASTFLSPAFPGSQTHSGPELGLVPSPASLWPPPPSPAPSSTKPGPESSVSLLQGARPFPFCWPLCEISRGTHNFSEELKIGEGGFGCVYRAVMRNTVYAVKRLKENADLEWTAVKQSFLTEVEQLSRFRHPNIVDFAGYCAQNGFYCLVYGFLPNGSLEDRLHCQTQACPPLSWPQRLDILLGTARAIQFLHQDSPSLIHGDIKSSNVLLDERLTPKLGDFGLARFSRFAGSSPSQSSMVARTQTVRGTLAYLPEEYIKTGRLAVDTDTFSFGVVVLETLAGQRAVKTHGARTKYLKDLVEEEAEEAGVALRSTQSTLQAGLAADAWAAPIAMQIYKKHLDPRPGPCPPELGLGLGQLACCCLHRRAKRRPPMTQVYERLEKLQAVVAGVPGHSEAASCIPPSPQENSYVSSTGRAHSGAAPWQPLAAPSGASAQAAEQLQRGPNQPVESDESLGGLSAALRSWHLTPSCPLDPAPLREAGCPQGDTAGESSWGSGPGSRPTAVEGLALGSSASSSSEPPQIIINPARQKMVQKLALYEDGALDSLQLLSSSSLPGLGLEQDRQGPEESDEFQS
# Protocol: as §1
# LKB1 = biological target: T1, LKB1 (Homo sapiens, UniProt Q15831); conditions: competition binding, % of control; read-out: Percent Control (100 uM Levosimendan)
# T1 construct: gene STK11
# Protocol: as §1
# MARK1 = MARK1 (Homo sapiens, UniProt Q9P0L2); conditions: competition binding, % of control; read-out: Percent Control (100 uM Levosimendan)
# Protocol: as §1
# MRCKB = biological target: T2, MRCKB (Homo sapiens, UniProt Q9Y5S2); conditions: competition binding, % of control; read-out: Percent Control (100 uM Levosimendan)
# T2 construct: gene CDC42BPB
# Protocol: as §1
# PIP5K1A = PIP5K1A (Homo sapiens, UniProt Q99755); conditions: competition binding, % of control
# Sequence of PIP5K1A (Q99755 whole entry): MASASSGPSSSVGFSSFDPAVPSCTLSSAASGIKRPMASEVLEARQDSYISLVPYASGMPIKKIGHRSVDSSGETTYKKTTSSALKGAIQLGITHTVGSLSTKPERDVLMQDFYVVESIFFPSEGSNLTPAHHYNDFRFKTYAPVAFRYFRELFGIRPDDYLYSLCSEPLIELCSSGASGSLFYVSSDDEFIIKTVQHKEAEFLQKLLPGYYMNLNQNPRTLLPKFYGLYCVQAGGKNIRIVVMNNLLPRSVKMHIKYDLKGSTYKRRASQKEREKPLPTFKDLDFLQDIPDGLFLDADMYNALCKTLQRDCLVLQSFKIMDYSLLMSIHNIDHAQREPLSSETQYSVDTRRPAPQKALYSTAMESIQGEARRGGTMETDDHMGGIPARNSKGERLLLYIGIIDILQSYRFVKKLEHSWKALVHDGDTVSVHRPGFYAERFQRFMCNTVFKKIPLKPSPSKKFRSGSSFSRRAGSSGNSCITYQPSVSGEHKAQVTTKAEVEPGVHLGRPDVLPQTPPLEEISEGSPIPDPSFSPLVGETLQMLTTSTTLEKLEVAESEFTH
# Protocol: as §1
# PKN1 = PKN1 (Homo sapiens, UniProt Q16512); conditions: competition binding, % of control; read-out: Percent Control (100 uM Levosimendan)
# Protocol: as §1
# RIPK5 = biological target: T3, RIPK5 (Homo sapiens, UniProt Q6XUX3); conditions: competition binding, % of control; read-out: Percent Control (100 uM Levosimendan)
# T3 construct: gene DSTYK
# Protocol: as §1
# ROCK1 = ROCK1 (Homo sapiens, UniProt Q13464); conditions: competition binding, % of control; read-out: Percent Control (100 uM Levosimendan)
# Sequence of ROCK1 (Q13464 whole entry): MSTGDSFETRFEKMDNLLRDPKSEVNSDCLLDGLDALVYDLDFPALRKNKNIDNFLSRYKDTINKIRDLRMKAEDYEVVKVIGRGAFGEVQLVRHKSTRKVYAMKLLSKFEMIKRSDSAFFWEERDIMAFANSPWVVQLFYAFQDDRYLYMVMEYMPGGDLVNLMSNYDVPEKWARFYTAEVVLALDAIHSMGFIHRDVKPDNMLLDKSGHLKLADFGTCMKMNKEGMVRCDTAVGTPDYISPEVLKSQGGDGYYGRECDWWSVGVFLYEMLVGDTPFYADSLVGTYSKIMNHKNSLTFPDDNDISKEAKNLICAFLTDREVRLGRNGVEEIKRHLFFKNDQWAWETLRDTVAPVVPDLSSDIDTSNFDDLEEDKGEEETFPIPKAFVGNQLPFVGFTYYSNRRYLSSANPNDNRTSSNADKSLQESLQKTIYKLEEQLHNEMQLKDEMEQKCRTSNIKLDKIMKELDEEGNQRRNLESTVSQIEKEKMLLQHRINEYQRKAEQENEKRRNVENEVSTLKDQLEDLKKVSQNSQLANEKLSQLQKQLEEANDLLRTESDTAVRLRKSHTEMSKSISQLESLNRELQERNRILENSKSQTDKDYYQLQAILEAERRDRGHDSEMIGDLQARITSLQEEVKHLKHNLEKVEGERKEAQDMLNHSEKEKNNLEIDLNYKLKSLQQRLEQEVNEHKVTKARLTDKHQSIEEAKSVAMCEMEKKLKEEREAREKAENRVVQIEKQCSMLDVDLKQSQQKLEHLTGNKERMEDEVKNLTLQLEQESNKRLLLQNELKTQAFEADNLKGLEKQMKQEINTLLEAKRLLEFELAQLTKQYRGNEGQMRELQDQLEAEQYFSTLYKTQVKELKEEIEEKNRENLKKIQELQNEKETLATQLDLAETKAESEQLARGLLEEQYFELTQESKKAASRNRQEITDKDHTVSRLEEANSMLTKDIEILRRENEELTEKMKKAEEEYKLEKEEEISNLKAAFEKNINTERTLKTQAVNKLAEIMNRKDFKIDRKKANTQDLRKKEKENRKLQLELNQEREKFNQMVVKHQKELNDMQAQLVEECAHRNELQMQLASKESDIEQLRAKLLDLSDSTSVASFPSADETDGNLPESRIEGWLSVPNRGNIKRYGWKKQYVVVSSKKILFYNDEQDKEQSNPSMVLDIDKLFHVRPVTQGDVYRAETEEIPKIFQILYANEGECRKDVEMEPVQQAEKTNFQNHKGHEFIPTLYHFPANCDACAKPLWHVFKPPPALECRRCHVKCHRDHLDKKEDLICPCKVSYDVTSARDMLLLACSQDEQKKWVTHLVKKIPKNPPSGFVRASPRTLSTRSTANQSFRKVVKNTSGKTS
# Protocol: as §1
# [1] = biological target: T4, RSK1(Kin.Dom.2-C-terminal) (Homo sapiens, UniProt Q15418); conditions: competition binding, % of control; read-out: Percent Control (100 uM Levosimendan)
# T4 construct: gene RPS6KA1; Kin.Dom.2-C-terminal
# T4 sequence (Q15418 whole entry): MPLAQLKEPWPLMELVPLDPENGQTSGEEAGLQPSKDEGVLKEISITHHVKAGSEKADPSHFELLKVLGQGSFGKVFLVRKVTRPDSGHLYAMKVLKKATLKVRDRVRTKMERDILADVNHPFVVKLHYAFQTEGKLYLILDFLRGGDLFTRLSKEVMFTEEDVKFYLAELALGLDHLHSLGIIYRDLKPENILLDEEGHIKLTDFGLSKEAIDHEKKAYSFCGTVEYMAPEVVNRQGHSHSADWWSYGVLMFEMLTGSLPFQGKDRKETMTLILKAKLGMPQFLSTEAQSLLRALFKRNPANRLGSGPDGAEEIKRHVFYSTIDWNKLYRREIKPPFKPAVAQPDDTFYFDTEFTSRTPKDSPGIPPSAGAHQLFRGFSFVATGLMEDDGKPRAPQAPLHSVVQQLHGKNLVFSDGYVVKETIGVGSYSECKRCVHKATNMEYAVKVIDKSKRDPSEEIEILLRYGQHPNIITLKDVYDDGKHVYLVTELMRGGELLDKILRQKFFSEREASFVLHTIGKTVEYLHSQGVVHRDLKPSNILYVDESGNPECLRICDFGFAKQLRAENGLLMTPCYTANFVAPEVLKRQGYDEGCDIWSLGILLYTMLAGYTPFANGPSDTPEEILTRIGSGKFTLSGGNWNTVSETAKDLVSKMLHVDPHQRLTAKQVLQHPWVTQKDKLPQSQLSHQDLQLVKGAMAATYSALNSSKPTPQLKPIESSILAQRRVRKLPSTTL
# Protocol: as §1
# [2] = biological target: T5, RSK4(Kin.Dom.1-N-terminal) (Homo sapiens, UniProt Q9UK32); conditions: competition binding, % of control; read-out: Percent Control (100 uM Levosimendan)
# T5 construct: gene RPS6KA6; Kin.Dom.1-N-terminal
# Protocol: as §1
# YANK3 = biological target: T6, YANK3 (Homo sapiens, UniProt Q86UX6); conditions: competition binding, % of control; read-out: Percent Control (100 uM Levosimendan)
# T6 construct: gene STK32C
# Protocol: as §1
# [3] = read-out: Percent Control (10 uM Levosimendan)
# [4] = read-out: Percent Control (100 uM Levosimendan)
smiles,measurement,setting,value
C[C@@H]1CC(=O)NN=C1c1ccc(NN=C(C#N)C#N)cc1 [levosimendan],remaining binding at 100 µM,ANKK1,77%
same,remaining binding at 100 µM,AURKA,73%
same,remaining binding at 100 µM,CAMK1G,62%
same,remaining binding at 100 µM,CAMK4,100%
same,remaining binding at 100 µM,CDK2,97%
same,remaining binding at 100 µM,CDK7,100%
same,remaining binding at 100 µM,DYRK1B,100%
same,remaining binding at 10 µM,EGFR(G719C); [3],49%
same,remaining binding at 100 µM,EGFR(G719C); [4],10%
same,remaining binding at 100 µM,IRAK1,61%
same,remaining binding at 100 µM,LKB1,100%
same,remaining binding at 100 µM,MARK1,85%
same,remaining binding at 100 µM,MRCKB,74%
same,remaining binding at 10 µM,PIP5K1A; [3],22%
same,remaining binding at 100 µM,PIP5K1A; [4],6.2%
same,remaining binding at 100 µM,PKN1,100%
same,remaining binding at 100 µM,RIPK5,60%
same,remaining binding at 100 µM,ROCK1,90%
same,remaining binding at 100 µM,[1],100%
same,remaining binding at 100 µM,[2],100%
same,remaining binding at 100 µM,YANK3,73%
